Results published in patent publication US20260049084A1, “ENPP1 MODULATORS AND PRODUCTS AND USES THEREOF” (Gossamer Bio Services, Inc., priority 2022, published 2026).

Legend:
[1] = target: Recombinant human ENPP1 protein (Homo sapiens (Human), UniProt P22413); experiment: ENPP1 cGAMP Biochemical Assay; conditions: 0.5 nM ENPP1, 1000 nM 2′3′-cGAMP substrate, TR-FRET
Procedure: ENPP1 cGAMP Biochemical Assay
Compounds were added to 384 well Proxiplate (PerkinElmer, Waltham MA) at 100 nl/well from DMSO stocks using Echo (Labcyte, San Jose CA). Recombinant human ENPP1 protein (R&D Systems, Minneapolis MN) was prepared in assay buffer (50 mM Tris pH7.5, 1 mM TCEP pH7.0, 2 mM MgCl2 and 0.005% Tween20) and added at 10 μl/well. The plate was sealed, centrifuged at 1000 rpm for 1 minute and incubated at room temperature for 30 minutes before 5 μl substrate 2′3′-cGAMP (R&D Systems, Minneapolis MN) in assay buffer was added to each well to a final concentration of 0.5 nM ENPP1 and 1000 nM 2′3′-cGAMP. The plate was sealed and centrifuged at 1000 rpm for 1 minute again. After incubation at 25° C. for 60 minutes, Terbium labelled AMP/GMP antibody and AMP/GMP HiLyte647 Tracer (BellBrook Labs, Fitchburg WI) in detection buffer (50 mM Tris pH7.5, 20 mM EDTA and 0.1% Prionex) were added to the reaction mixture to a final concentration of 2 nM (5 μl/well). The assay plate was incubated at room temperature for 120 minutes. TR-FRET signal was detected using Envision (PerkinElmer, Waltham MA).

[2] = target: Recombinant human ENPP3 protein (Homo sapiens (Human), UniProt O14638); experiment: ENPP3 cGAMP Biochemical Assay; conditions: 70.5 nM ENPP3, 120 μM 2′3′-cGAMP substrate, TR-FRET
Procedure: ENPP3 cGAMP Biochemical Assay
Compounds were added to 384 well Proxiplate (PerkinElmer, Waltham MA) at 100 nl/well from DMSO stocks using Echo (Labcyte, San Jose CA). Recombinant human ENPP3 protein (Acro Biosystems, Newwark DE) was prepared in assay buffer (50 mM Tris pH7.5, 1 mM TCEP pH7.0, 2 mM MgCl2, 2 mM CaCl2), 2 mM ZnCl2 and 0.005% Tween20) and added at 2 μl/well. The plate was sealed, centrifuged at 1000 rpm for 1 minute and incubated at room temperature for 30 minutes before 2 μl substrate 2′3′-cGAMP (R&D Systems, Minneapolis MN) in assay buffer was added to each well to a final concentration of 70.5 nM ENPP3 and 120 μM 2′3′-cGAMP. The plate was sealed and centrifuged at 1000 rpm for 1 minute again. After incubation at 25° C. for 60 minutes, Terbium labelled AMP/GMP antibody and AMP/GMP HiLyte647 Tracer (BellBrook Labs, Fitchburg WI) in detection buffer (50 mM Tris pH7.5, 20 mM EDTA and 0.1% Prionex) were added to the reaction mixture to a final concentration of 475 nM and 3 nM respectively. The assay plate was incubated at room temperature for 120 minutes. TR-FRET signal was detected using Envision (PerkinElmer, Waltham MA).

Chain of Recombinant human ENPP1 protein (P22413 whole entry): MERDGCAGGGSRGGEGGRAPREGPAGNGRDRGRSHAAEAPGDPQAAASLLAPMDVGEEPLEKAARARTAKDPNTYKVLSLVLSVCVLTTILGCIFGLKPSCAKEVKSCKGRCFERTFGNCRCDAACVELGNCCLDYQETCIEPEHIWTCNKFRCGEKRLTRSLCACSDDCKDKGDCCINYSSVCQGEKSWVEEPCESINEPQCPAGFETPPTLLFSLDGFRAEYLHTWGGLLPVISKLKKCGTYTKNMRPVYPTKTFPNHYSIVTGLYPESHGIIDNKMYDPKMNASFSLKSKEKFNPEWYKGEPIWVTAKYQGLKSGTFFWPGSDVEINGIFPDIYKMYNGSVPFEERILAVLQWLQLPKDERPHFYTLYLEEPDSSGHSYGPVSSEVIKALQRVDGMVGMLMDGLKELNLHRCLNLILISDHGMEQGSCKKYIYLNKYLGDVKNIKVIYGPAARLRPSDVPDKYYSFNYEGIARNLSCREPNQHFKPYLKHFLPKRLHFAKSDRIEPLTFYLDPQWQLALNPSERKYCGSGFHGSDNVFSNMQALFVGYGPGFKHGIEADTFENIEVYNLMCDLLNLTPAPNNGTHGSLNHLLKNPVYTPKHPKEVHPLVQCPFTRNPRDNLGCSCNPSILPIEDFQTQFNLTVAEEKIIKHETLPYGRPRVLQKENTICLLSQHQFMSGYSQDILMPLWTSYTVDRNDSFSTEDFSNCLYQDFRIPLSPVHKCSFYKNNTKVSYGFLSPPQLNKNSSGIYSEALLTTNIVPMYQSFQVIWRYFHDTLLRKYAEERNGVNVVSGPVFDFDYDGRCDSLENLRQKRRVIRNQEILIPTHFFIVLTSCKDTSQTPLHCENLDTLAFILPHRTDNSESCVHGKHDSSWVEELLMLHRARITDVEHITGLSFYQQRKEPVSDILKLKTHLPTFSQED
Chain of Recombinant human ENPP3 protein (O14638 whole entry): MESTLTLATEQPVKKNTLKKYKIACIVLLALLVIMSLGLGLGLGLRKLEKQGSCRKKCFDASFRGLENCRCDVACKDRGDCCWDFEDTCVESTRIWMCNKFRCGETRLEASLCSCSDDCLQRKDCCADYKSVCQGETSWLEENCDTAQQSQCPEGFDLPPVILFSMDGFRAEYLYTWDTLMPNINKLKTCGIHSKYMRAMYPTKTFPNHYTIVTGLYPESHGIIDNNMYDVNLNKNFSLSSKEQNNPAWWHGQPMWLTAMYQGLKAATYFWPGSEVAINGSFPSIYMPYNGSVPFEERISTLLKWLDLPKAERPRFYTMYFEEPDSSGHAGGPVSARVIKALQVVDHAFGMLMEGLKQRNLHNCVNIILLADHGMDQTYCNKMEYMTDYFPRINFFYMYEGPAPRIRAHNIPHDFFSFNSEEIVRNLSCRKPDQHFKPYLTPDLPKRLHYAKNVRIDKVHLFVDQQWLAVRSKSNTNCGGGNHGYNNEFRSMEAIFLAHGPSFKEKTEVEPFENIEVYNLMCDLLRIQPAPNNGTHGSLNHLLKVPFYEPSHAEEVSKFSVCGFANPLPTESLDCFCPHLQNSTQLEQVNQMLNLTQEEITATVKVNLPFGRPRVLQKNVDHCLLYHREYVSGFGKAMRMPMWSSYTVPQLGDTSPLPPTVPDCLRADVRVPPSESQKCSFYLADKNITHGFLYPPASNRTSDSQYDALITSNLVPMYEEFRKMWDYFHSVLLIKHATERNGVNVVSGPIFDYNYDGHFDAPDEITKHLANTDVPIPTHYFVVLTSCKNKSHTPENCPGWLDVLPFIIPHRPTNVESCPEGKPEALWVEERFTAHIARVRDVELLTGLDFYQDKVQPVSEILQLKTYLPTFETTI

SMILES | IC50 [1] | IC50 [2]
C#CCn1nc(Cl)c2c(NCc3ccc(S(=N)(=O)NC)cc3)ccnc21 (stereo in doubt) [Compound 10B, (R)-4-(((3-chloro-1-(prop-2-yn-1-yl)-1H-pyrazolo[3,4-b]pyridin-4-yl)amino)methyl)-N-methylbenzenesulfonimidamide] | < 0.01 µM | ≥ 1 µM
C#CCn1nc(Cl)c2c(NCc3ccc(S(=N)(=O)NC)cc3)ccnc21 (stereo in doubt) [Compound 10C, (S)-4-(((3-chloro-1-(prop-2-yn-1-yl)-1H-pyrazolo[3,4-b]pyridin-4-yl)amino)methyl)-N-methylbenzenesulfonimidamide] | < 0.01 µM | 0.01 to 0.1 µM
CCn1nc(Cl)c2c(NCC3CCN(S(=N)(N)=O)CC3)ccnc21 (centres unmarked) [Compound 1C, 4-(((3-chloro-1-ethyl-1H-pyrazolo[3,4-b]pyridin-4-yl)amino)methyl)piperidine-1-sulfonimidamide] | 0.01 to 0.1 µM | ≥ 1 µM
CCn1ncc2c(NCc3ccc(S(=N)(N)=O)cc3)cc(-c3ncc[nH]3)nc21 (centres unmarked) [Compound 2C, 4-(((1-ethyl-6-(1H-imidazol-2-yl)-1H-pyrazolo [3,4-b]pyridin-4-yl)amino)methyl)benzene sulfonimidamide] | 0.1 to 1 µM | 0.1 to 1 µM
CCn1ncc2c(NCc3ccc(S(=N)(N)=O)cc3)ncnc21 (centres unmarked) [Compound 2D, 4-(((1-ethyl-1H-pyrazolo[3,4-d]pyrimidin-4-yl)amino)methyl)benzenesulfonimidamide] | 0.01 to 0.1 µM | ≥ 1 µM
C#CCn1nc(Cl)c2c(NCc3c(F)cc(S(N)(=O)=NC)cc3F)ccnc21 (centres unmarked) [Compound 3B, 4-(((3-chloro-1-(prop-2-yn-1-yl)-1H-pyrazolo[3,4-b]pyridin-4-yl)amino)methyl)-3,5-difluoro-N-methylbenzenesulfonimidamide] | < 0.01 µM | 0.1 to 1 µM
C#CCn1nc(Cl)c2c(N(C)Cc3ccc(S(N)(=O)=NC)cc3)ccnc21 (centres unmarked) [Compound 3C, 4-(((3-chloro-1-(prop-2-yn-1-yl)-1H-pyrazolo[3,4-b]pyridin-4-yl)(methyl)amino)methyl)-N′-methylbenzenesulfonimidamide] | < 0.01 µM | 0.1 to 1 µM
CCn1ncc2c(NCc3ccc(S(N)(=O)=NC#N)cc3)ccnc21 (centres unmarked) [Compound 3D, N′-cyano-4-(((1-ethyl-1H-pyrazolo[3,4-b]pyridin-4-yl)amino)methyl)benzenesulfonimidamide] | < 0.01 µM | 0.1 to 1 µM
CCn1ncc2c(NCc3ccc([S@@](N)(=O)=NC)cc3)ccnc21 [Compound 3E, (S)-4-(((1-ethyl-1H-pyrazolo[3,4-b]pyridin-4-yl)amino)methyl)-N′-methylbenzenesulfonimidamide] | < 0.01 µM | ≥ 1 µM
CCn1ncc2c(NCc3ccc([S@](N)(=O)=NC)cc3)ccnc21 [Compound 3F, (R)-4-(((1-ethyl-1H-pyrazolo[3,4-b]pyridin-4-yl)amino)methyl)-N′-methylbenzenesulfonimidamide] | 0.1 to 1 µM | ≥ 1 µM
CCn1ncc2c(Nc3ccc(S(N)(=O)=NCC4CC4)cc3)ccnc21 (centres unmarked) [Compound 5A, N′-(cyclopropylmethyl)-4-((1-ethyl-1H-pyrazolo [3,4-b]pyridin-4-yl)amino) benzenesulfonimidamide] | 0.01 to 0.1 µM | 0.1 to 1 µM
CCn1ncc2c(Nc3ccc(S(N)(=O)=NC)cc3)ccnc21 (centres unmarked) [Compound 5B, 4-((1-ethyl-1H-pyrazolo[3,4-b]pyridin-4-yl)amino)-N′-methylbenzenesulfonimidamide] | 0.01 to 0.1 µM | ≥ 1 µM
CCn1nc(Cl)c2c(Nc3ccc(S(=N)(N)=O)cc3)ccnc21 (centres unmarked) [Compound 5C, 4-((3-chloro-1-ethyl-1H-pyrazolo[3,4-b]pyridin-4-yl)amino)benzenesulfonimidamide] | 0.01 to 0.1 µM | 0.1 to 1 µM
CCn1nc(Cl)c2c(Nc3ccc(S(N)(=O)=NC)cc3)ccnc21 (centres unmarked) [Compound 5D, 4-((3-chloro-1-ethyl-1H-pyrazolo[3,4-b]pyridin-4-yl)amino)-N′-methylbenzenesulfonimidamide] | < 0.01 µM | 0.1 to 1 µM
CCN=S(N)(=O)c1ccc(Nc2ccnc3c2c(Cl)nn3CC)cc1 (centres unmarked) [Compound 5E, 4-((3-chloro-1-ethyl-1H-pyrazolo[3,4-b]pyridin-4-yl)amino)-N′-ethylbenzenesulfonimidamide] | < 0.01 µM | 0.1 to 1 µM
CCn1nc(Cl)c2c(Nc3ccc(S(N)(=O)=NCC4CC4)cc3)ccnc21 (centres unmarked) [Compound 5F, 4-((3-chloro-1-ethyl-1H-pyrazolo[3,4-b]pyridin-4-yl)amino)-N′-(cyclopropylmethyl)benzene sulfonimidamide] | < 0.01 µM | 0.1 to 1 µM
CCn1nc(Cl)c2c(Nc3ccc(S(N)(=O)=NC#N)cc3)ccnc21 (centres unmarked) [Compound 5G, 4-((3-chloro-1-ethyl-1H-pyrazolo[3,4-b]pyridin-4-yl)amino)-N′-cyanobenzenesulfonimidamide] | 0.01 to 0.1 µM | ≥ 1 µM
CCn1nc(Cl)c2c(Nc3ccc(S(N)(=O)=NC(C)C)cc3)ccnc21 (centres unmarked) [Compound 5H, 4-((3-chloro-1-ethyl-1H-pyrazolo[3,4-b]pyridin-4-yl)amino)-N′-isopropylbenzenesulfonimidamide] | < 0.01 µM | 0.1 to 1 µM
CCn1nc(Cl)c2c(Nc3ccc(S(N)(=O)=NC4CC4)cc3)ccnc21 (centres unmarked) [Compound 5I, 4-((3-chloro-1-ethyl-1H-pyrazolo[3,4-b]pyridin-4-yl)amino)-N′-cyclopropylbenzenesulfonimidamide] | < 0.01 µM | ≥ 1 µM
C#CCn1nc(Cl)c2c(NCc3ccc([S@](C)(=N)=O)cc3)ccnc21 [Compound 6A, (R)-(4-(((3-chloro-1-(prop-2-yn-1-yl)-1H-pyrazolo[3,4-b]pyridin-4-yl)amino)methyl)phenyl)(imino)(methyl)-λ^6-sulfanone] | 0.01 to 0.1 µM | ≥ 1 µM
C#CCn1nc(Cl)c2c(NCc3ccc([S@@](C)(=N)=O)cc3)ccnc21 [Compound 6B, (S)-(4-(((3-chloro-1-(prop-2-yn-1-yl)-1H-pyrazolo[3,4-b]pyridin-4-yl)amino)methyl)phenyl)(imino)(methyl)-λ^6-sulfanone] | < 0.01 µM | 0.01 to 0.1 µM
CCn1ncc2c(OCc3ccc(S(N)(=O)=NC)cc3)ccnc21 (centres unmarked) [Compound 7A, 4-(((1-ethyl-1H-pyrazolo[3,4-b]pyridin-4-yl)oxy)methyl)-N′-methylbenzenesulfonimidamide] | 0.1 to 1 µM | ≥ 1 µM
CS(=N)(=O)c1ccc(COc2ccnc3c2c(Cl)nn3CC#N)cc1 (centres unmarked) [Compound 8A, 2-(3-chloro-4-((4-(S-methylsulfonimidoyl)benzyl)oxy)-1H-pyrazolo[3,4-b]pyridin-1-yl) acetonitrile] | < 0.01 µM | 0.1 to 1 µM
C#CCn1nc(Cl)c2c(N(C)Cc3ccc(S(C)(=N)=O)cc3)ccnc21 (centres unmarked) [Compound 9A, (4-(((3-chloro-1-(prop-2-yn-1-yl)-1H-pyrazolo [3,4-b]pyridin-4-yl)(methyl)amino)methyl)phenyl)(imino)(methyl)-λ^6-sulfanone] | < 0.01 µM | 0.01 to 0.1 µM
C#CCn1nc(Cl)c2c(N(C)Cc3ccc([S@](C)(=N)=O)cc3)ccnc21 [Compound 9B, (R)-(4-(((3-chloro-1-(prop-2-yn-1-yl)-1H-pyrazolo[3,4-b]pyridin-4-yl)(methyl)amino)methyl)phenyl)(imino)(methyl)-λ^6-sulfanone] | < 0.01 µM | 0.01 to 0.1 µM
CCn1ncc2c(NCC3CCN([S@@](C)(=N)=O)CC3)ccnc21 [Compound 14G, (R)-1-ethyl-N-((1-(S-methylsulfonimidoyl)piperidin-4-yl)methyl)-1H-pyrazolo[3,4-b]pyridine-4-amine] |  | ≥ 1 µM
CCn1ncc2c(NCC3CCN([S@](C)(=N)=O)CC3)ccnc21 [Compound 14H, (S)-1-ethyl-N-((1-(S-methylsulfonimidoyl)piperidin-4-yl)methyl)-1H-pyrazolo[3,4-b]pyridin-4-amine] |  | ≥ 1 µM
CN=[S@](N)(=O)N1CCC(CNc2ccnc3c2c(Cl)nn3CC#N)CC1 [Compound 15G, (S)-4-(((3-chloro-1-(cyanomethyl)-1H-pyrazolo[3,4-b]pyridin-4-yl)amino)methyl)-N′-methylpiperidine-1-sulfonimidamide] |  | 0.1 to 1 µM
